Data as given in article PMC8151276, “An Integrated Approach toward NanoBRET Tracers for Analysis of GPCR Ligand Engagement” (Molecules, 2021).

Assays:
Assay type in all cases: binding
[1] = biological target: T1, FPR3 (Homo sapiens, UniProt P25089); assay: NanoBRET screen HiBiT-FPR3 in HEK293
T1 construct: purchased Promega (in-house HiBiT-GPCR construct library, NanoBRET)
T1 sequence (P25089 1-353): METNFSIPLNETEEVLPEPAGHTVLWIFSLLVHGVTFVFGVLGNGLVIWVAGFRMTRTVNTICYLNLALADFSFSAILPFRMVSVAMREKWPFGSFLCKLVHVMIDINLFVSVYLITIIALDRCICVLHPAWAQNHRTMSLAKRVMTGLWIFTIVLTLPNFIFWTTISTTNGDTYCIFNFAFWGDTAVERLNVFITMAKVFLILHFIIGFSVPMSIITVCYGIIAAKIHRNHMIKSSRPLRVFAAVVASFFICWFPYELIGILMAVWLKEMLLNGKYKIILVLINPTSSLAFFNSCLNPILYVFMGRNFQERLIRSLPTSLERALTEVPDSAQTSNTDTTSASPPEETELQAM
Method: (§1) Each tracer candidate was screened across the entire library of HiBiT-GPCR constructs using NanoBRET as the detection modality. As depicted in Figure 4A, the specificity of interactions was evaluated through decrease in BRET due to competitive displacement of a bound tracer by excess parental compound. Each tracer was analyzed for binding to each HiBiT-GPCR fusion in the absence and in the presence of competing parental compound. Briefly, HEK293 cells were transfected with HiBiT-GPCR constructs diluted into promoterless DNA to reduce expression and maximize translocation to the cell surface. Each tracer candidate was then screened at concentrations of 1 μM and 0.1 μM across cells expressing these fusions. Cells were treated for 1.5 h with tracer either alone or in the presence of 20 μM competing parental compound (i.e., control). BRET was measured upon addition of purified LgBiT and subsequent complementation with HiBiT genetically fused to a GPCR. The specificity of interactions was assessed through a decrease in BRET signal due to competitive displacement of the bound tracer. To further gauge the robustness of these interactions, the fold response over the control (i.e., BRETtracer/BRETcontrol) was calculated. We chose a 1.5-fold response, which translates to ≥7-fold signal over noise as the minimal threshold required to score an interaction as positive. […]. Below we highlight the screening results obtained for our exemplary fluorescent tracers based on Clozapine, Amitriptyline and AZD1283.
(§2) HiBiT-GPCR DNA constructs were diluted in 10 mM Tris pH 8 to a final concentration of 0.01 μg/μL, arrayed in 96-well plates and stored at −20 °C. For transfection, HEK293 cells were suspended in Opti-MEM (without phenol red) supplemented with 2% fetal bovine serum (Seradigm) and 100 units/mL penicillin–streptomycin (Gibco) at a final concentration of 220,000 cells/mL and dispensed into white 96-well plates at 90 μL/well. Subsequent transfections and screens were carried using an Agilent Bravo Automated Liquid Handling Platform. First, the 96-well HiBiT DNA arrays were diluted 25-fold in Opti-MEM (without serum or phenol red) to a final concentration of 0.0004 μg/μL and 20 μL of the diluted DNAs were transferred into new 96-well plates. Next, promoterless carrier DNA (1 μg/μL) was diluted 25-fold (0.04 μg/μL) and then dispensed into the diluted arrays at 20 μL/well. Following brief mixing, Viafect transfection reagent (Promega) diluted 16-fold into Opti-MEM was dispensed into the plates at 40 μL/well. After mixing by pipetting, plates were incubated for 10 min on the pipetting station deck. The DNA-transfection reagent complexes were then added to plates containing cells. To facilitate the screen, 10 μL of DNA-transfection reagent complexes were added in duplicates to the top 4 and bottom 4 rows, resulting in two identical 48-well arrays per plate. Plates with transfected cells were incubated for 18–20 h at 37 °C/5% CO2. A screen of each tracer across the entire library using two different concentrations requires duplicate plates of transfected cells. Depending on the number of tracers being screened, transfections can be scaled up using the same ratios. The next day, for each tracer, four 20× screening solutions in tracer dilution buffer (Promega) were prepared: two duplicates at final concentration of 20 μM and two duplicates at a final concentration of 2 μM. A competing unmodified compound was added to one of each duplicate at a final concentration of 400 μM. The four resulting solutions were diluted 4-fold in Opti-MEM without serum or phenol red to generate 5× solutions (5 µM and 0.5 µM tracer +/− 100 μM competing compound). To screen the library, a BioTek MultiFlo FX liquid dispenser was used to dispense 22.5 µL of tracer solution to the top 4 rows and 22.5 µL tracer + competing compound solution to the 4 bottom rows. Plates were briefly mixed on an orbital shaker and incubated for 1.5 h at room temperature. […]

[2] = biological target: T2, PTGER1 (Homo sapiens, UniProt P34995); assay: NanoBRET screen HiBiT-PTGER1 in HEK293
T2 construct: purchased Promega (in-house HiBiT-GPCR construct library, NanoBRET)
T2 sequence (P34995 1-402): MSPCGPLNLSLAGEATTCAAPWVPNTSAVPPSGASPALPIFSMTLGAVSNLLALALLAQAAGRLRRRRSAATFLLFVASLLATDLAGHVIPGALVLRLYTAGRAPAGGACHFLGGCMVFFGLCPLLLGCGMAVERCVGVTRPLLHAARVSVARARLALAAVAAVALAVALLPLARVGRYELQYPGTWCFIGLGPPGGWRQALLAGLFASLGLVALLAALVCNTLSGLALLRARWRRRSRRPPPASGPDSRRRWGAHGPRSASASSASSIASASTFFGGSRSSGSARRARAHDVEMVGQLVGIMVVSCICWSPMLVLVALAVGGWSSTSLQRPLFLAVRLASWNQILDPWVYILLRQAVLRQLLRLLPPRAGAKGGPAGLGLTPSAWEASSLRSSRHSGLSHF
Method: as §1, §2

[3] = biological target: T3, GRM8 (Homo sapiens, UniProt O00222); assay: NanoBRET screen HiBiT-GRM8 in HEK293; conditions: GRM8
T3 construct: purchased Promega (in-house HiBiT-GPCR construct library, NanoBRET)
T3 sequence (O00222 34-908): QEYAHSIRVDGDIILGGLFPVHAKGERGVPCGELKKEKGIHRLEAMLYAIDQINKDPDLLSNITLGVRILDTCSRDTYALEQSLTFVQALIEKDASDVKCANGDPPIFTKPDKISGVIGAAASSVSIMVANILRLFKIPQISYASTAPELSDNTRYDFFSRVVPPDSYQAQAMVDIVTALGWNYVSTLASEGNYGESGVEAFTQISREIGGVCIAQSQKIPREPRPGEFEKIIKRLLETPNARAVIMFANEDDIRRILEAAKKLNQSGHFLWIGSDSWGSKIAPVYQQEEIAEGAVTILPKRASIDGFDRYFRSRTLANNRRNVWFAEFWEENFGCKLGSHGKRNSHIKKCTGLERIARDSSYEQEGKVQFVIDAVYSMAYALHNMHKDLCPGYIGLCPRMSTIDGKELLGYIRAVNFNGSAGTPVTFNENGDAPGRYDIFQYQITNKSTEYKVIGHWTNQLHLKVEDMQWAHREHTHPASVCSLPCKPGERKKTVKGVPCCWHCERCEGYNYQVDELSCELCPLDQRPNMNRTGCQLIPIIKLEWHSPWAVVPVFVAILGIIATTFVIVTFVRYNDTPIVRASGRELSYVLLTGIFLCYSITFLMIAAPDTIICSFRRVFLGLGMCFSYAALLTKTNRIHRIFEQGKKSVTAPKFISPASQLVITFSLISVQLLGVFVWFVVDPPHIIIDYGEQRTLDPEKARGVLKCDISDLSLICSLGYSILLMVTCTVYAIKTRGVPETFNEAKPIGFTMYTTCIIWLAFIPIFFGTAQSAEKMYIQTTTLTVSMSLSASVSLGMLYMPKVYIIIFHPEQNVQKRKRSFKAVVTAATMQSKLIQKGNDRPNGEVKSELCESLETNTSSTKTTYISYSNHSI
Method: as §1, §2

SMILES | NanoBRET Fold Response ([1]; FPR3, tracer 0.1μM) | NanoBRET Fold Response ([1]; FPR3, tracer 1μM) | NanoBRET Fold Response ([2]; PTGER1, tracer 0.1μM) | NanoBRET Fold Response ([2]; PTGER1, tracer 1μM) | NanoBRET Fold Response ([3]; tracer 0.1μM) | NanoBRET Fold Response ([3]; tracer 1μM) | NanoBRET Fold Response ([1]; FPR3, 0.1μM tracer) | NanoBRET Fold Response ([1]; FPR3, 1μM tracer) | NanoBRET Fold Response ([2]; PTGER1, 0.1μM tracer) | NanoBRET Fold Response ([2]; PTGER1, 1μM tracer) | NanoBRET Fold Response ([3]; 0.1μM tracer) | NanoBRET Fold Response ([3]; 1μM tracer) | NanoBRET Fold Response ([1]; tracer at 0.1μM, listed as amitriptyline-b-2-NB590) | NanoBRET Fold Response ([1]; tracer at 1μM, listed as amitriptyline-b-2-NB590) | NanoBRET Fold Response ([2]; tracer at 0.1μM) | NanoBRET Fold Response ([2]; tracer at 1μM)
CC(C)N(CC[C@H](c1ccccc1)c1cc(CCNC(=O)c2ccc(CNC(=O)CCc3ccc4n3[B-](F)(F)[N+]3=C(c5ccc[nH]5)C=CC3=C4)cc2)ccc1O)C(C)C [Tolterodine-BZ-NB590] | 0.71 | 0.93 | 1.03 | 1.03 | 1.02 | 1.03 |  |  |  |  |  |  |  |  |  | 
O=C(CCc1ccc2n1[B-](F)(F)[N+]1=C(c3ccc[nH]3)C=CC1=C2)NCCOCCOCCNC(=O)OCCOCCN1CCN(C2=Nc3ccccc3Sc3ccccc32)CC1 [Quetiapine-a-2-NB590] | 1.28 | 0.66 | 1.07 | 1.05 | 0.98 | 1.00 |  |  |  |  |  |  |  |  |  | 
CN1CCN(C2=Nc3cc(Cl)ccc3Nc3ccc(CNC(=O)CCOCCOCCOCCOCCNC(=O)CCc4ccc5n4[B-](F)(F)[N+]4=C(c6ccc[nH]6)C=CC4=C5)cc32)CC1 [Clozapine-b-2-NB590] |  |  |  |  |  |  | 1.06 | 1.23 | 1.01 | 0.97 | 1.01 | 1.02 |  |  |  | 
CC(C)N(CC[C@H](c1ccccc1)c1cc(CCNC(=O)CCOCCOCCOCCOCCNC(=O)CCc2ccc3n2[B-](F)(F)[N+]2=C(c4ccc[nH]4)C=CC2=C3)ccc1O)C(C)C [Tolterodine-2-NB590] | 1.60 | 0.92 | 1.00 | 1.23 | 1.00 | 1.31 |  |  |  |  |  |  |  |  |  | 
Cc1cc2c(s1)Nc1ccccc1N=C2N1CCN(CCCNC(=O)CCOCCOCCOCCOCCNC(=O)CCc2ccc3n2[B-](F)(F)[N+]2=C(c4ccc[nH]4)C=CC2=C3)CC1 [Olanzapine-a-2-NB590] | 0.92 | 0.96 | 1.03 | 1.04 | 0.97 | 1.04 |  |  |  |  |  |  |  |  |  | 
N#CN=C(NCCCOc1cccc(CN2CCCCC2)c1)NCCNC(=O)CCOCCOCCOCCOCCNC(=O)CCc1ccc2n1[B-](F)(F)[N+]1=C(c3ccc[nH]3)C=CC1=C2 [Aminopotentidine-2-NB590] | 1.21 | 1.13 | 0.97 | 0.95 | 1.01 | 0.99 |  |  |  |  |  |  |  |  |  | 
Cc1nc2n(c(=O)c1CCN1CCC(c3noc4cc(F)ccc34)CC1)CCCC2OC(=O)NCCOCCOCCOCCOCCNC(=O)CCc1ccc2n1[B-](F)(F)[N+]1=C(c3ccc[nH]3)C=CC1=C2 (stereo not drawn) [Risperidone-2-NB590] | 0.98 | 0.94 | 1.04 | 1.07 | 1.00 | 1.04 |  |  |  |  |  |  |  |  |  | 
CN(C)CCC=C1c2ccccc2CCc2ccc(C(=O)NCCNC(=O)CCOCCOCCOCCOCCNC(=O)CCc3ccc4n3[B-](F)(F)[N+]3=C(c5ccc[nH]5)C=CC3=C4)cc21 [Amitriptyline-b-2-NB590] |  |  |  |  | 1.01 | 0.99 |  |  |  |  |  |  | 1.27 | 1.02 | 1.07 | 1.01
